Results: patent US9920063B2, “Melampomagnolide B derivatives” (Board of Trustees of the University of Arkansas, priority 2013, dated 2018)
Read-outs that look alike come from different tables or passages of the source.

Experiments:
SK-OV-3 = details: for Percent Growth: SK-OV-3

Structure (SMILES): C=C1C(=O)O[C@H]2[C@H]1CC/C(COC(=O)c1cc3ccccc3[nH]1)=C\CC[C@@]1(C)O[C@@H]21 [BS-1-28]
- CC50 (NCI/ADR-RES): > 100 µM
- Percent Growth (NCI/ADR-RES; NCl/ADR-RES, Log10 Concentration −4.0): −43%
- Percent Growth (NCI/ADR-RES; NCl/ADR-RES, Log10 Concentration −5.0): −2%
- Percent Growth (NCI/ADR-RES; NCl/ADR-RES, Log10 Concentration −6.0): 77%
- Percent Growth (NCI/ADR-RES; NCl/ADR-RES, Log10 Concentration −7.0): 100%
- Percent Growth (NCI/ADR-RES; NCl/ADR-RES, Log10 Concentration −8.0): 99%
- GI50 (NCI/ADR-RES; NCl/ADR-RES, NCI five dose): 2.2 µM
- TGI (NCI/ADR-RES; NCl/ADR-RES, NCI five dose): 9.42E−6
- CC50 (SN12C): 90.5 µM
- Percent Growth (SN12C; SN12C, Log10 Concentration −4.0): −59%
- Percent Growth (SN12C; SN12C, Log10 Concentration −5.0): −35%
- Percent Growth (SN12C; SN12C, Log10 Concentration −6.0): 77%
- Percent Growth (SN12C; SN12C, Log10 Concentration −7.0): 71%
- Percent Growth (SN12C; SN12C, Log10 Concentration −8.0): 60%
- GI50 (SN12C; SN12C, NCI five dose): 1.14 µM
- TGI (SN12C; SN12C, NCI five dose): 4.83E−6
- CC50 (UACC-257): 6.98 µM
- Percent Growth (UACC-257; UACC-257, Log10 Concentration −4.0): −78%
- Percent Growth (UACC-257; UACC-257, Log10 Concentration −5.0): −75%
- Percent Growth (UACC-257; UACC-257, Log10 Concentration −6.0): 53%
- Percent Growth (UACC-257; UACC-257, Log10 Concentration −7.0): 93%
- Percent Growth (UACC-257; UACC-257, Log10 Concentration −8.0): 98%
- GI50 (UACC-257; UACC-257, NCI five dose): 1.61 µM
- TGI (UACC-257; UACC-257, NCI five dose): 3.36E−6
- CC50 (TK-10): 5.39 µM
- Percent Growth (TK-10; TK-10, Log10 Concentration −4.0): −98%
- Percent Growth (TK-10; TK-10, Log10 Concentration −5.0): −96%
- Percent Growth (TK-10; TK-10, Log10 Concentration −6.0): 74%
- Percent Growth (TK-10; TK-10, Log10 Concentration −7.0): 117%
- Percent Growth (TK-10; TK-10, Log10 Concentration −8.0): 95%
- GI50 (TK-10; TK-10, NCI five dose): 1.39 µM
- TGI (TK-10; TK-10, NCI five dose): 2.73E−6
- CC50 (SNB-75): 4.72 µM
- Percent Growth (SNB-75; SNB-75, Log10 Concentration −4.0): −58%
- Percent Growth (SNB-75; SNB-75, Log10 Concentration −5.0): −98%
- Percent Growth (SNB-75; SNB-75, Log10 Concentration −6.0): 50%
- Percent Growth (SNB-75; SNB-75, Log10 Concentration −7.0): 77%
- Percent Growth (SNB-75; SNB-75, Log10 Concentration −8.0): 72%
- GI50 (SNB-75; SNB-75, NCI five dose): 1.01 µM
- TGI (SNB-75; SNB-75, NCI five dose): 2.19E−6
- CC50 (SF-268): 6.5 µM
- Percent Growth (SF-268; SF-268, Log10 Concentration −4.0): −85%
- Percent Growth (SF-268; SF-268, Log10 Concentration −5.0): −81%
- Percent Growth (SF-268; SF-268, Log10 Concentration −6.0): 83%
- Percent Growth (SF-268; SF-268, Log10 Concentration −7.0): 96%
- Percent Growth (SF-268; SF-268, Log10 Concentration −8.0): 98%
- GI50 (SF-268; SF-268, NCI five dose): 1.59 µM
- TGI (SF-268; SF-268, NCI five dose): 3.22E−6
- CC50 (NCI-H522): 6.72 µM
- Percent Growth (NCI-H522; NCI-H522, Log10 Concentration −4.0): −72%
- Percent Growth (NCI-H522; NCI-H522, Log10 Concentration −5.0): −69%
- Percent Growth (NCI-H522; NCI-H522, Log10 Concentration −6.0): 43%
- Percent Growth (NCI-H522; NCI-H522, Log10 Concentration −7.0): 104%
- Percent Growth (NCI-H522; NCI-H522, Log10 Concentration −8.0): 83%
- GI50 (NCI-H522; NCI-H522, NCI five dose): 0.757 µM
- TGI (NCI-H522; NCI-H522, NCI five dose): 2.40E−6
- CC50 (SF-539): 6.53 µM
- Percent Growth (SF-539; SF-539, Log10 Concentration −4.0): −91%
- Percent Growth (SF-539; SF-539, Log10 Concentration −5.0): −91%
- Percent Growth (SF-539; SF-539, Log10 Concentration −6.0): 70%
- Percent Growth (SF-539; SF-539, Log10 Concentration −7.0): 93%
- Percent Growth (SF-539; SF-539, Log10 Concentration −8.0): 90%
- GI50 (SF-539; SF-539, NCI five dose): 1.32 µM
- TGI (SF-539; SF-539, NCI five dose): 2.71E−4
- CC50 (SK-OV-3): 11.7 µM
- Percent Growth (SK-OV-3; Log10 Concentration −4.0): −86%
- Percent Growth (SK-OV-3; Log10 Concentration −5.0): −47%
- Percent Growth (SK-OV-3; Log10 Concentration −6.0): 77%
- Percent Growth (SK-OV-3; Log10 Concentration −7.0): 90%
- Percent Growth (SK-OV-3; Log10 Concentration −8.0): 82%
